Test results from patent US9051467B2, “Method of analysing a cell or other biological material containing a nucleic acid” (BIOSTATUS LIMITED, priority 2010, dated 2015).

Assays:
[1] = Spectral properties (absorbance and fluorescence spectra); format: physicochemical; settings: for Em peak / Ex peak: FIG. 1, in general terms (diagrammatically)
From the text: (§1) These possible detection systems and others will now be described in more detail with reference to FIGS. 1 to 9. […] Therefore, the Compound of Formula (IIA) fluorescence is generally in the orange portion of the visible spectrum, whereas compound (IA) fluorescence is generally in the far red portion of the visible spectrum. […] The compound of Formula (IIA) is a cell permeant dye, and therefore it would be expected that the fluorescence signature B would be in connection with live or dead cells. […] As might perhaps be expected, it is only the fluorescence signature B associated with the cell permeant dye which is observed. […] It might be expected that a significant contribution of the observed fluorescence would emanate from the compound of Formula (IIA) dye. […] Therefore, the compound (IA) dye appears to quench the compound of Formula (IIA) signal. […] However, other mechanisms may play a role. The upshot is that it is possible to provide a “traffic light” system to indicate the state of a cell, wherein fluorescence in one spectral region A is associated with dead cells, and fluorescence in another spectral region B is associated with live cells.
Compound (IA) was synthesized using the principles described in Example 2 and stored at +4° C. as a stock solution of 5 mM compound (IA) dilution in buffer. Absorbance spectra were obtained using a spectrometer and a 20 μM solution of agent dissolved in PBS and measured in a 1 cm path quartz silica cuvette. Fluorescence spectra for a solution of 20 μM compound (IA) in a 1 cm path length semi-micro quartz cuvette were determined by excitation at 633, 589, 534, 488 nm. Fluorescence measurements were made on a Perkin Elmer LS50 spectrofluorometer with slit widths set at 10 nm. The spectrofluoremeter was equipped with a red-sensitive photomultiplier tube (Type R928; Hamamatsu Photonics KK, Japan. Data were accumulated and exported into a spread sheet to correct for the buffer control and to determine emission maxima. The results are shown in FIG. 8. Compound (IA) may be sub-optimally excited by wavelengths from 488 nm (in flow cytometry) and up to 647 nm (Exλmax 646 nm). Typically, for cell imaging, excitation is performed with either 633 nm or 647 nm wavelengths. Emission spectra are independent of excitation wavelength, ie, all the emission spectra are identical irrespective of excitation wavelength.

[2] = tested on: fixed U-2 OS human osteosarcoma cells; assay: Nuclear staining of fixed cells by fluorescence microscopy; format: cell-based; settings: 20 μM, cells fixed with 4% paraformaldehyde
Description: Cell culture: Human osteosarcoma cells U-20S (ATCC HTB-96) cells (adherent) were cultured in McCoy's 5a medium supplemented with 10% foetal calf serum (FCS), 1 mM glutamine, and antibiotics and incubated at 37° C. in an atmosphere of 5% CO2 in air. For fluorescence imaging experiments, cells were grown at a density of 1×10^5 cells ml^−1 as a monolayer in coverglass bottomed chambers (Nunc, 2 Well Lab-Tek II, Fisher Scientific). Imaging: Following a 24 hour period cells were then fixed with 4% paraformaldehyde in PBS for 15-30 min at room temperature. No washing step is required. Compound (IA) was used in a manner appropriate to being the final staining procedure, after any treatment. Compound (IA) was added directly at 20 μM in to a 0.5 ml PBS overlay of the adherent cells. Cells were directly viewed using wide-field fluorescence microscopy. Chambers were placed onto an Axiovert 100 microscope (Carl Zeiss, Welwyn Garden City, UK and using a 40×, 1.3 NA oil immersion plan apochromat lens).fluorescence images (Ex: 620/60 nm; Em 700/75 nm) nm captured using an ORCA-ER CCD camera (Hamamatsu, Reading, UK) and MetaMorph (MDS, USA) acquisition software. […] The compound (IA) staining of nuclei were segmented using a simple threshold algorithm which depict the nuclei, and provide binary or mask information of each nucleus (object) localization. […]

human Jurkat cells = assay: Multi-parameter JC-1 / compound (IA) analysis of staurosporine treated cells; format: cell-based; settings: 3 μM with JC-1, Jurkat cells, 1 μM staurosporine for 4 hours
From the text: In this example, the dye JC-1 (5,5′,6,6′-tetrachloro-1,1′,3,3′-tetraethylbenzimidazol-carbocyanine iodide) is a lipophilic fluorescent cation that incorporates into the mitochondrial membrane, where it can form aggregates due to the physiological maintenance membrane potential of mitochondria. Aggregation modifies the fluorescence properties of JC-1 leading to a shift from green to orange fluorescence. Flow cytometry or imaging was used to monitor the decrease of the orange fluorescence and an increase of the green fluorescence allowing apoptotic cells to be distinguished from non-apoptotic cells.
Cell culture and drug treatment: A Jurkat cell line was used in this study Jurkat cultures was routinely maintained in RPMI 1640 supplemented with 10% FCS and 100 U ml-1 penicillin, 100 μg ml-1 streptomycin, and 2 mM glutamine. […] These were then analysed by flow cytometry or placed into a Nunc, 2 Well Lab-Tek II, (Fisher Scientific) and analysed by three channel confocal microscopy.
Multi-parameter flow cytometry of staurosporine treated cells A FACS Vantage flow cytometer (as for example above). […] JC-1 two parameter fluorescent signal were derived from 488 nm excitation were detected in logarithmic mode Green J-monomer was detected using FL1 (530/30 nm emission); Orange J-aggregate was detected using FL2 (585/42 nm emission). […]

[3] = tested on: DoHH2 cultures treated with VP-16; assay: Combination tracking of cell status with compound (IA) plus compound (IIA), flow cytometry; format: cell-based, human; settings: 20 μM compound (IIA) and 4 μM compound (IA), 10 minutes, VP-16 0.25 μM
Description: Cell culture and drug treatment: A human follicular B-lymphoma cell line was used in this study. DoHH2 was routinely maintained in RPMI 1640 supplemented with 5% FCS and 100 U ml-1 penicillin, 100 μgml^−1 streptomycin, and 2 mM glutamine. The cells were passaged twice weekly at an initiating density of 5×10^4 cells ml^−1 cultured at 37° C. in a humidified atmosphere of 5% CO2/95% air. Cells were set at 5×10^5 cells/per ml and exposed to VP-16 doses (0.25 μM) to induce apoptosis. 20 μM Compound (IIA) and 4 μM compound (IA) were added to 1 ml of cells and incubated under standard culture conditions for 10 minutes. The samples were analysed by flow cytometry.
A FACS Vantage flow cytometer (as for example above) was used. Compound (IIA) and compound (IA) fluorescent signals derived from 488 nm excitation were detected in linear mode at FL2 for Compound (IIA) (585/42 nm filters); compound (IA) signal derived from 488 nm were detected in linear mode at FL3 with a 695LP filter and a FL1/2 560 nm SP dichroic SP to determine scatter properties. Signals for forward and side scatter and fluorescence were collected for 10,000 cells using the forward light scatter parameter as the master signal. Contour plots of side versus forward scatter depict two populations of cells. The addition of Compound (IIA) and compound (IA) provide functional status of these cultures. […]

[4] = tested on: live cells and dead cells; assay: Cell permeant/cell impermeant dye combination staining of live and dead cells; format: cell-based; set-up: key to Live cell stain / Dead cell stain: +: positive; −: negative; settings: for Dead cell stain / Live cell stain: combination staining pattern, predicted
From the text: It will be appreciated that this provides the opportunity to perform numerous advantageous two-colour, two-fluorochrome experiments. Moreover, the present inventors have realised that dye combinations of this type also provide a platform for performing a range of advantageous experiments using one or more further fluorochromes.
as §1

Compound | Exλmax ([1]; 20 μM solution in PBS) [nm] | Em peak [1] [nm] | Ex peak [1] [nm] | Nuclear localisation of dye [2] | Discrimination of early and late apoptosis sub-fractions (human Jurkat cells) | Cell fraction identified [3] | Cell permeation property [4] | Dead cell stain [4] | Live cell stain [4] | Fluorescence observed in dead cells ([4]; in combination with compound (IA))
1,5-Bis{[2-(trimethylamino)ethyl]amino}-5,8-dihydroxyanthracene-9,10-dione iodide [Compound (IA)] | 646 | 660 | 620 | localization of high levels of compound (IA) in the nucleus | can depict these sub-fractions | identifies the non-intact cell fraction | cell impermeant | + | − | 
CN(C)CCNc1cccc2c1C(=O)c1cccc(NCCN(C)C)c1C2=O [Compound (IIA), 1,5-Bis{[2-(dimethylamino)ethyl]amino}anthracene-9,10-dione] |  | 615 | 518 |  |  | positive cells represent the live cell (viable) fraction | cell permeant | − | + | little or no fluorescence
